Experimental findings from patent US5861476A, “Peptides and compounds that bind to the IL-1 receptor” (Affymax Technologies N.V., priority 1995, dated 1999) are described below.

By IC50 is commonly meant the midpoint of a concentration-inhibition curve. Lower therefore signals higher potency.

Like-named read-outs stand apart in the source and are kept apart here. Where a SMILES comes first, the peptide text is derived from it. Where no end group is shown, it is not given here. [ ]: non-standard residue; d: D form. Bpa = N[C@@H](Cc1ccc(C(=O)c2ccccc2)cc1)C(=O)O; Aze = O=C(O)[C@@H]1CCN1; Aib = CC(C)(N)C(=O)O

The experiment deals with T1, IL-1RtI (Homo sapiens, UniProt P14778).
T1 construct: made in house; host or cells: recombinant host cells (one form soluble from baculovirus transformed host cells; another PIG-tailed and cleaved from the cell surface)
T1 sequence (P14778 18-336): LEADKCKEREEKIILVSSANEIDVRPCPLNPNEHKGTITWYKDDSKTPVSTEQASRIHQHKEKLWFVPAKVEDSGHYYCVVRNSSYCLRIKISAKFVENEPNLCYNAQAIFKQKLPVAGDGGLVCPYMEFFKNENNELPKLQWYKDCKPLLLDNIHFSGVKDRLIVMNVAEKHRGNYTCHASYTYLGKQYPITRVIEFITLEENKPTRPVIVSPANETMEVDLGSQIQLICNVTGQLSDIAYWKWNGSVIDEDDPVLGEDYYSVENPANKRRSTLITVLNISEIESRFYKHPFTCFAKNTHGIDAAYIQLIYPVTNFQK
The experiment can be described thus: Inhibition of 125I-IL-1α binding to IL-1RtI (Example 3). The procedure: This example provides the results of experiments conducted to determine an approximate IC50 for certain peptides of the invention. IC50 as used herein refers to the concentration of a compound which will inhibit 50% of the binding between a receptor and its ligand, e.g. IL-1RtI and IL-1. Stock solutions of each peptide were prepared. The appropriate amount of the peptide was dissolved in DMSO, and then nineteen volumes of binding buffer (RPMI 1640, 1% BSA, 20 mM HEPES, pH 7.2-7.3, and 0.1% sodium azide) were added to yield a 1 mM peptide, 5% DMSO stock solution.
One assay utilized a truncated IL-1RtI which had been immobilized on 96-well plates with an appropriate antibody, typically a non-blocking high affinity antibody. In other assays, cells expressing "full-length" IL-1RtI were used with results that yielded IC50 values about 5 to 10 fold lower than those determined using the truncated receptor. The cells were seeded onto Falcon 3072 96-well plates at about 10^5 cells per well, and the plates were incubated overnight at 37° C. in media containing serum. The following morning, the cells were checked to ensure that the cells were confluent and adhered to the bottom of the wells.
According to either assay protocol, the plates were then washed three times with binding buffer, and then 50 μl of binding buffer and 25 μl of a peptide solution (either the stock solution or a dilution thereof; each stock was subjected to five three fold dilutions) were added to each well. Then 25 μl of binding buffer containing ^125 I-IL-1α (final concentration of 90 pM) were added to each well to begin the assay. Each assay was carried out in duplicate. The plates were then incubated for two hours at 4° C. For peptides having particularly high affinities, the assay was run in 24 well plates allowing for higher levels of ligand (possible total volume of 2.5 ml instead of 100 μl in the 96 well plate), thereby minimizing the potential for ligand depletion.
After the two hour incubation, the wells were rinsed three times with ice cold PBS (a semi-automated cell harvesting device was used to conduct the rinse). The receptors or cells were then detached from the plates by adding 100 μl of 0.1N NaOH to each well and incubating the plates at room temperature for 20 minutes. After the 20 minute incubation, about 75 μl of the suspension was counted on a gamma counter, and the IC50 for each peptide was determined using computer assistance and the results of the gamma counting.

Setting [1] is: inhibition of 125I-IL-1α binding to IL-1RtI, soluble peptide unless marked *.

Under setting [1], “VHVYWQPYSVQT [Peptide 3H5, VHVYWQPYSVQT]” displayed an IC50 of at most 100 µM.
Turning to FEWTPGYWQPYALPL [FEWTPGYWQPYALPL], the IC50 was under 0.5 µM. Under setting [1], this molecule had an IC50 of at most 0.5 µM.
RGDYWQPYSVQS [3H9, 11, RGDYWQPYSVQS] came in with a half-maximal inhibitory concentration (IC50) under setting [1] of at most 100 µM.
MWYQPYSSQPAE [MWYQPYSSQPAE] came in with an IC50 under setting [1] of at most 100 µM.
With `C[C@@H](O)[C@H](NC(=O)[C@H](Cc1c[nH]c2ccccc12)NC(=O)[C@H](CCC(=O)O)NC(=O)[C@@H](N)Cc1ccc(O)cc1)C(=O)N1CCC[C@H]1C(=O)NCC(=O)N[C@@H](Cc1ccc(O)cc1)C(=O)N[C@@H](Cc1ccc(O)cc1)C(=O)N[C@@H](CCC(N)=O)C(=O)N1CC[C@H]1C(=O)N[C@@H](Cc1ccc(O)cc1)C(N)=O` [YEWTPGYYQJY--NH2] (H-YEWTPGYYQ[Aze]Y-NH2), the IC50 under setting [1] is at most 0.5 µM.
GWYQPYVDGWR [GWYQPYVDGWR]: the IC50 under setting [1] is at most 100 µM.
Under setting [1], “RLVYWQPYSVQT [Peptide 3H2, RLVYWQPYSVQT]” registered an IC50 of at most 100 µM.
Still for that read-out and setting: with WETWYQPYALPL [WETWYQ PYALPL] the figure was at most 100 µM; with `C[C@@H](O)[C@H](NC(=O)[C@H](Cc1c[nH]c2ccccc12)NC(=O)[C@H](CCC(=O)O)NC(=O)[C@@H](N)Cc1ccccc1)C(=O)N1CCC[C@H]1C(=O)NCC(=O)N[C@@H](Cc1c[nH]c2ccccc12)C(=O)N[C@@H](Cc1ccc(O)cc1)C(=O)N[C@@H](CCC(N)=O)C(=O)N1CC[C@H]1C(=O)N[C@@H](Cc1ccc(O)cc1)C(N)=O` [FEWTPGWYQJY--NH2] (H-FEWTPGWYQ[Aze]Y-NH2), at most 0.5 µM.
Take YYSWQPYALPL [YYSWQ PYALPL]: the 50% inhibitory concentration (IC50) under setting [1] was over 100 µM.
In the case of `C[C@H](NC(=O)[C@H](CC(N)=O)NC(=O)[C@H](CO)NC(=O)[C@H](CCC(=O)O)NC(=O)[C@H](CCC(=O)O)NC(=O)[C@H](Cc1c[nH]c2ccccc12)NC(=O)[C@@H](NC(=O)[C@@H](N)Cc1ccccc1)[C@@H](C)O)C(=O)N[C@@H](Cc1ccc(O)cc1)C(=O)N[C@@H](Cc1ccc(O)cc1)C(=O)N[C@@H](Cc1c[nH]c2ccccc12)C(=O)N[C@@H](CCC(N)=O)C(=O)N1CC[C@H]1C(=O)N[C@@H](Cc1ccc(O)cc1)C(N)=O` [FTWEESNAYYWQJY-NH2] (H-FTWEESNAYYWQ[Aze]Y-NH2), the concentration for half-maximal inhibition (IC50) is under 0.5 µM.
In the case of “ENTYSPNWADSMYWQPYALPL [ENTYSPNWADSM YWQPYALPL]”, the IC50 under setting [1] was at most 0.5 µM.
Consider WGEWLQPYALPL [WGEWLQ PYALPL], for which the half-inhibitory concentration (IC50) under setting [1] was at most 100 µM.
Molecule GWEQPYARGLAG [GWEQPYARGLAG] showed an IC50 under setting [1] of at most 100 µM.
For `C[C@H](NC(=O)[C@@H](N)Cc1ccccc1)C(=O)N[C@@H](Cc1c[nH]c2ccccc12)C(=O)N[C@H](C(=O)N1CCC[C@H]1C(=O)NCC(=O)N[C@@H](Cc1ccc(O)cc1)C(=O)N[C@@H](Cc1c[nH]c2ccccc12)C(=O)N[C@@H](CCC(N)=O)C(=O)N1CC[C@H]1C(=O)N[C@@H](Cc1ccc(O)cc1)C(N)=O)[C@@H](C)O` [FAWTPGYWQJY--NH2] (H-FAWTPGYWQ[Aze]Y-NH2), the IC50 under setting [1] was at most 0.5 µM.
Consider HIDNTAWYENFLLTYTP [HIDNTAWYENFLLTYTP], for which the IC50 is under 0.5 µM.
With YFQPYALPF [YFQPYALPF], under setting [1], the IC50 is over 100 µM.
Consider YFQPYALGL [YFQPYALGL], for which, under setting [1], the IC50 is at most 100 µM.
For RSQYYQPYALPL [RSQYYQ PYALPL], under setting [1], the half-maximal inhibitory concentration (IC50) is at most 100 µM.
With `C[C@H](NC(=O)[C@@H](NC(=O)[C@H](Cc1c[nH]c2ccccc12)NC(=O)[C@H](CCC(=O)O)NC(=O)[C@@H](N)Cc1ccccc1)[C@@H](C)O)C(=O)NCC(=O)N[C@@H](Cc1ccc(O)cc1)C(=O)N[C@@H](Cc1c[nH]c2ccccc12)C(=O)N[C@@H](CCC(N)=O)C(=O)N1CC[C@H]1C(=O)N[C@@H](Cc1ccc(O)cc1)C(N)=O` [FEWTAGYWQJY--NH2] (H-FEWTAGYWQ[Aze]Y-NH2), the IC50 under setting [1] is at most 0.5 µM.
In turn, `C[C@H](NC(=O)[C@H](Cc1c[nH]c2ccccc12)NC(=O)[C@H](CCC(=O)O)NC(=O)[C@@H](N)Cc1ccccc1)C(=O)N1CCC[C@H]1C(=O)NCC(=O)N[C@@H](Cc1ccc(O)cc1)C(=O)N[C@@H](Cc1c[nH]c2ccccc12)C(=O)N[C@@H](CCC(N)=O)C(=O)N1CC[C@H]1C(=O)N[C@@H](Cc1ccc(O)cc1)C(N)=O` [FEWAPGYWQJY--NH2] (H-FEWAPGYWQ[Aze]Y-NH2) came in with an IC50 under setting [1] of at most 0.5 µM.
In turn, YYTWQQPYALPL [YYTWQQ PYALPL] had an IC50 under setting [1] of over 100 µM.
The same measure, in the same setting: the figure for `CC(=O)N[C@@H](Cc1ccccc1)C(=O)N[C@@H](CCC(=O)O)C(=O)N[C@@H](Cc1c[nH]c2ccccc12)C(=O)N[C@H](C(=O)N1CCC[C@H]1C(=O)NCC(=O)N[C@@H](Cc1ccc(O)cc1)C(=O)N[C@@H](Cc1ccc(O)cc1)C(=O)N[C@@H](CCC(N)=O)C(=O)N1CC[C@H]1C(=O)N[C@@H](Cc1ccc(C(=O)c2ccccc2)cc1)C(N)=O)[C@@H](C)O` [AcFEWTPGYYQJ--Bpa--NH2] (Ac-FEWTPGYYQ[Aze][Bpa]-NH2) is at most 100 µM; for `CC(=O)N[C@@H](Cc1ccc(C(=O)c2ccccc2)cc1)C(=O)N[C@@H](CCC(=O)O)C(=O)N[C@@H](Cc1c[nH]c2ccccc12)C(=O)N[C@H](C(=O)N1CCC[C@H]1C(=O)NCC(=O)N[C@@H](Cc1ccc(O)cc1)C(=O)N[C@@H](Cc1ccc(O)cc1)C(=O)N[C@@H](CCC(N)=O)C(=O)N1CC[C@H]1C(=O)N[C@@H](Cc1ccc(O)cc1)C(N)=O)[C@@H](C)O` [AcBpa--EWTPGYYQJY--NH2] (Ac-[Bpa]EWTPGYYQ[Aze]Y-NH2) it is at most 0.5 µM; for `C[C@H](NC(=O)[C@@H]1CCN1C(=O)[C@H](CCC(N)=O)NC(=O)[C@H](Cc1c[nH]c2ccccc12)NC(=O)[C@H](Cc1ccc(O)cc1)NC(=O)CNC(=O)[C@@H]1CCCN1C(=O)[C@@H](NC(=O)[C@H](Cc1c[nH]c2ccccc12)NC(=O)[C@H](CCC(=O)O)NC(=O)[C@@H](N)Cc1ccccc1)[C@@H](C)O)C(N)=O` [FEWTPGYWQJA--NH2] (H-FEWTPGYWQ[Aze]A-NH2) it is at most 100 µM.
On to WRDSVYWQPYSVQPESA [WRDS VYWQPYSVQ PESA], for which the half-inhibitory concentration (IC50) under setting [1] was at most 100 µM.
Molecule ARFWLQPYALPL [ARFWLQ PYALPL] yielded an IC50 under setting [1] of at most 100 µM.
For GWYQPYALGF [GWYQPYALGF], the IC50 under setting [1] is at most 100 µM.
The same measure, in the same setting: with YYQPYALPL [YYQPYALPL] the figure was at most 100 µM; with `CC(C)[C@H](NC(=O)[C@H](Cc1c[nH]c2ccccc12)NC(=O)[C@H](CCC(=O)O)NC(=O)[C@@H](N)Cc1ccccc1)C(=O)N1CCC[C@H]1C(=O)NCC(=O)N[C@@H](Cc1ccc(O)cc1)C(=O)N[C@@H](Cc1ccc(O)cc1)C(=O)N[C@@H](CCC(N)=O)C(=O)N1CC[C@H]1C(=O)N[C@@H](Cc1ccc(O)cc1)C(N)=O` [FEWVPGYYQJY--NH2] (H-FEWVPGYYQ[Aze]Y-NH2), at most 0.5 µM; with `CC(=O)N[C@@H](Cc1ccccc1)C(=O)N[C@@H](CCC(=O)O)C(=O)N[C@@H](Cc1c[nH]c2ccccc12)C(=O)N[C@H](C(=O)N1CCC[C@H]1C(=O)NCC(=O)N[C@@H](Cc1ccc(C(=O)c2ccccc2)cc1)C(=O)N[C@@H](Cc1ccc(O)cc1)C(=O)N[C@@H](CCC(N)=O)C(=O)N1CC[C@H]1C(=O)N[C@@H](Cc1ccc(O)cc1)C(N)=O)[C@@H](C)O` [AcFEWTPG--Bpa--YQJY--NH2] (Ac-FEWTPG[Bpa]YQ[Aze]Y-NH2), at most 0.5 µM.
The same measure, in the same setting: with ESFWVQPYALPL [ESFWVQ PYALPL] the figure was over 100 µM.
RFMYWQPYSVQR [RFMYWQPYSVQR]: under setting [1], the IC50 was at most 100 µM.
Under setting [1], `C[C@H](N)C(=O)N[C@@H](CCC(=O)O)C(=O)N[C@@H](Cc1c[nH]c2ccccc12)C(=O)N[C@H](C(=O)N1CCC[C@H]1C(=O)NCC(=O)N[C@@H](Cc1ccc(O)cc1)C(=O)N[C@@H](Cc1c[nH]c2ccccc12)C(=O)N[C@@H](CCC(N)=O)C(=O)N1CC[C@H]1C(=O)N[C@@H](Cc1ccc(O)cc1)C(N)=O)[C@@H](C)O` [AEWTPGYWQJY--NH2] (H-AEWTPGYWQ[Aze]Y-NH2) showed a half-maximal inhibitory concentration (IC50) of at most 100 µM.
In turn, DWFQPYSIQSDE [DWFQPYSIQSDE] returned an IC50 under setting [1] of at most 100 µM.
For `C[C@@H](O)[C@H](NC(=O)[C@H](Cc1c[nH]c2ccccc12)NC(=O)[C@H](CCC(=O)O)NC(=O)[C@@H](N)Cc1ccccc1)C(=O)N1CCC[C@H]1C(=O)NC(C)(C)C(=O)N[C@@H](Cc1ccc(O)cc1)C(=O)N[C@@H](Cc1c[nH]c2ccccc12)C(=O)N[C@@H](CCC(N)=O)C(=O)N1CC[C@H]1C(=O)N[C@@H](Cc1ccc(O)cc1)C(N)=O` [FEWTPAibYWQJY--NH2] (H-FEWTP[Aib]YWQ[Aze]Y-NH2), the half-maximal inhibitory concentration (IC50) under setting [1] is at most 0.5 µM.
